Test results reported in patent publication US7902384B2, “Estrogenic-active compounds and application thereof” (National Taiwan University, priority 2008, dated 2011).
Several values for one entry are separate records, joined by “and”; a condition that tells them apart may be missing. Identical values can stand only once.

Tests used:
GAL4-hERα [1] = biological target: T1, GAL4-hERα (Homo sapiens, UniProt P03372); test: Estrogenic activity assay: GAL4-hERα LBD / (UAS)4-ALP reporter in transfected CHO-k1 cells, single addition of sample; type: cell-based; set-up: expressed in transfected cells; host or cells: CHO-k1 (Chinese hamster cells); settings: for EC50: read-out: EC50 for ERα (converted)
T1 sequence (P03372 311-547 limits assumed): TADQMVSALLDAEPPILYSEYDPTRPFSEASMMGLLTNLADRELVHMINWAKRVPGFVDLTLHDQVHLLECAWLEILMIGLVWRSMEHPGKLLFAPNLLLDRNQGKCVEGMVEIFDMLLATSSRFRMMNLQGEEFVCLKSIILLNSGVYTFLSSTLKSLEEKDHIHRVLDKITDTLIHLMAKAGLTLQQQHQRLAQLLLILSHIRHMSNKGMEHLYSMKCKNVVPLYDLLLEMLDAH
From the text: (§1) First, a method for assessing the estrogenic activity in the field samples was established. This method comprises: preparing a cell line transfected with plasmids which can screen estrogenic activity substances. […] The reporter gene in the plasmid was expressed when the sample to be assayed contains estrogenic activity. Among them, the samples to be assayed in the examples of the invention include Loliolide, (4S,6S)-4-Hydroxy-6-nonadecyl-tetrahydro-pyran-2-one, (4R,6S)-4-Hydroxy-6-nonadecyl-tetrahydro-pyran-2-one. […] The details of establishing the assessing method are described as follows: […]

GAL4-hERβ [2] = biological target: T2, GAL4-hERβ (Homo sapiens, UniProt Q92731); test: Estrogenic activity assay: GAL4-hERβ LBD / (UAS)4-ALP reporter in transfected CHO-k1 cells, single addition of sample; type: cell-based; set-up: expressed in transfected cells; host or cells: CHO-k1 (Chinese hamster cells); settings: for EC50: read-out: EC50 for ERβ (converted); for ERβ versus ERα selectivity of activation: comparison of ERα and ERβ reporter activation
From the text: as §1

GAL4-hERβ [3] = biological target: T2, GAL4-hERβ; test: Estrogenic activity assay with co-addition of 1 nM 17β-estradiol (antagonism or synergistic agonism), GAL4-hERβ reporter in CHO-k1 cells; settings: co-added with 1 nM 17β-estradiol, vs single addition of estrogen, p<0.05
From the text: (§2) Plasmid pBKCMV containing GAL4hERα (or ERβ) ligand binding domain (LBD) chimeric receptors and plasmid containing (UAS)4-alkaline phosphatase (ALP) reporter gene were co-transfected into Chinese hamster cells (CHO-k1). Compounds with estrogenic activity would interact with estrogen-specific ER to induce the binding of GAL4 and upstream activation sequence (UAS) specifically to initiate the expression of ALP gene. Therefore, the ALP activity can be used to determine whether the samples to be assayed have the estrogenic activity.
(§3) Cells in high confluence were plated onto 96-well culture plate the day before transfection. The plate was then washed to remove the serum during the day of transfection, followed by addition of two plasmid DNA, GAL4-hERα and (UAS)4-ALP in the ratio of 5:1, or GAL4-hERβ and (UAS)4-ALP in the ratio of 4:1, together with Lipofectamine™ 2000 transfection agent and culture medium to form DNA-liposome complex for 5 h.
(§4) The sample to be assayed was added into the medium of transfected cells and cultivated for 2 days.

GAL4-hERα [4] = biological target: T1, GAL4-hERα; test: Estrogenic activity assay with co-addition of 1 nM 17β-estradiol (antagonism or synergistic agonism), GAL4-hERα reporter in CHO-k1 cells; settings: co-added with 1 nM 17β-estradiol, vs single addition of estrogen, p<0.05
From the text: as §2, §3, §4

[5] = ALP reporter, CHO-k1, single addition

T2 sequence (Q92731 264-498 limits assumed): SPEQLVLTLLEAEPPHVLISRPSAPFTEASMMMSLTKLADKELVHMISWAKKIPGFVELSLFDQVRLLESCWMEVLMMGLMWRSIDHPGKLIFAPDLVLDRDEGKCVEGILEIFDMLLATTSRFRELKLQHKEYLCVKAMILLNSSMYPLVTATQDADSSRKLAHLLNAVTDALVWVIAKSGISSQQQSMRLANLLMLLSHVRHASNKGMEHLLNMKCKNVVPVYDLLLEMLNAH

Structure (SMILES) | concentration at which maximal activation of ERα activity was achieved (GAL4-hERα [1]) [µg/mL] | concentration at which maximal activation of ERβ activity was achieved (GAL4-hERβ [2]; [5]) [µg/mL] | EC50 (GAL4-hERβ [2]; [5]) | ERβ versus ERα selectivity of activation (GAL4-hERβ [2]) | concentration at which activation of ERβ due to estrogen was significantly decreased (GAL4-hERβ [3]) | concentration at which activation of ERα due to estrogen was significantly decreased (GAL4-hERα [4]) | EC50 (GAL4-hERα [1]) [µM] | concentration at which maximal activation of the estrogenic activity was achieved (ERα) (GAL4-hERα [1]) [µM] | concentration at which maximal activation of the estrogenic activity was achieved (ERβ) (GAL4-hERβ [2]; [5]) [µM]
CCCCCCCCCCCCCCCCCCC[C@H]1C[C@@H](O)CC(=O)O1 [(4R,6S)-4-Hydroxy-6-nonadecyl-tetrahydro-pyran-2-one] | 20 | 10 | 8.94 µM | better activation efficiency in ERβ | 2 µg/mL | 2 µg/mL | – | – | –
CCCCCCCCCCCCCCCCCCC[C@H]1C[C@H](O)CC(=O)O1 [(4S,6S)-4-Hydroxy-6-nonadecyl-tetrahydro-pyran-2-one] | 10 | 10 | 4.68 µM | better activation efficiency in ERβ | 2 µg/mL | 1 µg/mL | 16.2 | – | –
CC1(C)C[C@H](O)C[C@@]2(C)OC(=O)C=C12 [Loliolide] | 20 | 20 | 17.9 µM and 18 µM | better activation efficiency in ERβ | 204 µM | 10.1 µM | 54.2 | 102.0 | 102.0
